Tests used:
Assay type in all cases: biochemical
[1] = molecular target: T1, Vn-ExoY (Vn-ExoY^455-863) activated by G-actin-ATP/ADP-LatB (Vibrio nigripulchritudo, UniProt A0A9P1NJI6); assay: cCMP synthesis, [alpha-33P]NTP assay; details: 2 mM CTP, MgCl2, 6 uM LatB-Mg-G-actin, pH 8.0, 30 °C; labelled compound
T1 construct: gene VIBNI_0210; ExoY effector domain of MARTX toxin, residues 3455-3863, N-terminal twin-Strep-tag with PreScission site (cleaved for crystals), E. coli BL21(DE3); with rabbit skeletal muscle G-actin; with Actin, alpha skeletal muscle

[2] = molecular target: T2, Pa-ExoY activated by F-actin (Pseudomonas aeruginosa, UniProt O85345); assay: cGMP synthesis, [alpha-33P]NTP assay; details: 2 mM GTP, MgCl2, 3 uM Mg-F-actin, pH 8.0, 30 °C; labelled compound
T2 construct: residues 20-378, N-terminal twin-Strep-tag (ST2), E. coli BL21(DE3), 44 kDa monomer; with Actin, alpha skeletal muscle

[3] = molecular target: T2, Pa-ExoY activated by F-actin; assay: cUMP synthesis, [alpha-33P]NTP assay; details: 2 mM UTP, MgCl2, 6 uM Mg-F-actin, pH 8.0, 30 °C; labelled compound

## Nc1ccn([C@@H]2O[C@H](COP(=O)(O)OP(=O)(O)OP(=O)(O)O)[C@@H](O)[C@H]2O)c(=O)n1 [CTP]
[1]
  cCMP synthesis, [alpha-33P]NTP assay: cCMP synthesis catalysed by wild-type or mutants of Vn-ExoY activated by G-actin

## Nc1nc2c(ncn2[C@@H]2O[C@H](COP(=O)(O)OP(=O)(O)OP(=O)(O)O)[C@@H](O)[C@H]2O)c(=O)[nH]1 [GTP]
[2]
  cGMP synthesis, [alpha-33P]NTP assay: cGMP synthesis catalysed by wild-type or mutants of Pa-ExoY activated by F-actin

## O=c1ccn([C@@H]2O[C@H](COP(=O)(O)OP(=O)(O)OP(=O)(O)O)[C@@H](O)[C@H]2O)c(=O)[nH]1 [UTP]
[3]
  cUMP synthesis, [alpha-33P]NTP assay: cCMP and cUMP synthesis catalysed by wild-type or mutants of Pa-ExoY activated by F-actin
